In paper PMC10058229, “Diverse cytomotive actins and tubulins share a polymerization switch mechanism conferring robust dynamics” (Science Advances, 2023):

Target: T1, BtubA*B (Prosthecobacter dejongeii, UniProt A0A7W7YIU5+A0A7W7YJ10, A0A7W7YIU5:R284G/A0A7W7YIU5:K286D/A0A7W7YIU5:F287G)
T1 construct: gene HNQ64_001272; BtubA M-loop triple mutant coexpressed with BtubB in E. coli C41(DE3); no tag mentioned; single protofilament polymer; Methods once print R286D instead of K286D
T1 sequence (A0A7W7YIU5 1-473 R284G/K286D/F287G): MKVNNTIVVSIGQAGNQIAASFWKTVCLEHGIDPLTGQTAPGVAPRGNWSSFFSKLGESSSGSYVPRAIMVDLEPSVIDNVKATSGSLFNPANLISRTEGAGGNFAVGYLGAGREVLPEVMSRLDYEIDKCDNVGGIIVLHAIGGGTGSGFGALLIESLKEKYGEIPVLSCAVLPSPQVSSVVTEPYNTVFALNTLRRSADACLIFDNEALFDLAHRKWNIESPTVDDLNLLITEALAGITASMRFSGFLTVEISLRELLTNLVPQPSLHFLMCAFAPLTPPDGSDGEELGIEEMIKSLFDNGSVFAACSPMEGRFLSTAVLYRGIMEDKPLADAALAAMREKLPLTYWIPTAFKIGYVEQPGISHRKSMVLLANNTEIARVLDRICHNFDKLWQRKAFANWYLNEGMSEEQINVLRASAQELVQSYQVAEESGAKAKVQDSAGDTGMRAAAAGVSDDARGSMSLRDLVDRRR
T1 sequence (A0A7W7YJ10 1-426): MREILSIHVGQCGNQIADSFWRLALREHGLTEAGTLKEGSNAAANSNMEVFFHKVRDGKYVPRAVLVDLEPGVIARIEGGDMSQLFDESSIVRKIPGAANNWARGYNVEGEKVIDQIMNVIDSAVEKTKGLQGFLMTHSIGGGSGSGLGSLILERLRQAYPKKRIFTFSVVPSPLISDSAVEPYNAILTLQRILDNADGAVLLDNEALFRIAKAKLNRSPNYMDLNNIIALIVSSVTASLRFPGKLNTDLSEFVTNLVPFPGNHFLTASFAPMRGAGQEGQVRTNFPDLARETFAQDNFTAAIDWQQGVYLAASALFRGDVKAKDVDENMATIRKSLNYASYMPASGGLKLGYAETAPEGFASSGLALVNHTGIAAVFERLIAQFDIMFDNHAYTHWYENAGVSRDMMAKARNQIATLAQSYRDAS
Assay: polymerization seen by cryo-EM (~[…] Å map)
Assay type: biochemical
Conditions: 5 mM GTP, 5 mM magnesium acetate, pH 7.7, 20 °C; nucleotide not resolved

For `Nc1nc2c(ncn2[C@@H]2O[C@H](COP(=O)(O)OP(=O)(O)OP(=O)(O)O)[C@@H](O)[C@H]2O)c(=O)[nH]1` [GTP], the “polymerization seen by cryo-EM (~8 Å map)” value was “BtubA*B polymerizes in the presence of GTP and GMPCPP to form straight single protofilaments”.
